Laboratory results: patent publication US8901118B2, “Compounds and methods for kinase modulation, and indications therefor” (Plexxikon Inc., priority 2010, dated 2014)

What was measured:
CYP1A2 = biological target: T1, CYP1A2 (Homo sapiens, UniProt P05177); assay: CYP1A2 inhibition (fluorescent substrate CEC); format: in vitro ADME; conditions: read-out: Cyp IC50 1A2
T1 sequence (P05177 1-516): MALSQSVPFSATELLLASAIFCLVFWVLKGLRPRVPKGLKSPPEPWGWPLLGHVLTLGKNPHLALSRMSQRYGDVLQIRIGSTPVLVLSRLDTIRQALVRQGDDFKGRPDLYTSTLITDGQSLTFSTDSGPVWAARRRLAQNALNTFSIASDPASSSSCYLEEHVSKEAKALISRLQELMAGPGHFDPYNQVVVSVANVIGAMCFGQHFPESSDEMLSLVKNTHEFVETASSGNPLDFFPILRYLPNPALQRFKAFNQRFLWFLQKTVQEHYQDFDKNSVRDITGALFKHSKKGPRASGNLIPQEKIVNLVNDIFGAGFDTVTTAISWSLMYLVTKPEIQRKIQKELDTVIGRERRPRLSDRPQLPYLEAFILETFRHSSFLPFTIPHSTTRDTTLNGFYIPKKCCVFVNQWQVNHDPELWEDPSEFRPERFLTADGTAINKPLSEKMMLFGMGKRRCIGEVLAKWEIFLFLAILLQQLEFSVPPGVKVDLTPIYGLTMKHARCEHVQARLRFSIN
Procedure, shortened: (§1)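 Test compounds, 10-point 1:1 serial dilutions in NADPH-regenerating cofactor mix, were preincubated 10 min at 37° C before recombinant enzyme and fluorogenic substrate reactions at 37° C (CYP1A2 15 min; CYP2C9 45 min; CYP2C19, 2D6 30 min). Product fluorescence was read at 409 ex with 460 em (1A2, 2C19) or 530 em (2C9, 2D6), and IC50 fitted from signal versus concentration.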

CYP2C9 = CYP2C9 (Homo sapiens, UniProt P11712); assay: CYP2C9 inhibition (fluorescent substrate MFC); format: in vitro ADME; conditions: read-out: Cyp IC50 2C9
Chain of CYP2C9 (P11712 whole entry): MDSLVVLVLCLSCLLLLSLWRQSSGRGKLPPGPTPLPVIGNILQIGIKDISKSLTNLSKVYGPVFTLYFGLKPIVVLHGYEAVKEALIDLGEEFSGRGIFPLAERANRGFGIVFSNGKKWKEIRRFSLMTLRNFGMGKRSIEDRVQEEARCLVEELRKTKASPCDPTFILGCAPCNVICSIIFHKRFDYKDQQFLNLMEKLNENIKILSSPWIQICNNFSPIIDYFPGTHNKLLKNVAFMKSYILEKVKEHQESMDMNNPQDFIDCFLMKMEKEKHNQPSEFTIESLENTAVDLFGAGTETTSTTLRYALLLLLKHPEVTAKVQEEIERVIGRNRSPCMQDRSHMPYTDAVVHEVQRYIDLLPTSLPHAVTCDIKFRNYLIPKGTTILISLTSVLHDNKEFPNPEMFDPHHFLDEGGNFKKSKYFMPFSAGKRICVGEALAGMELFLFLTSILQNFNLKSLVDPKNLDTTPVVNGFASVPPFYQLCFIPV
Procedure, shortened: as §1

BCR-NTRK2 BaF3 cells = biological target: T2, BCR-NTRK2 BaF3 cells (Homo sapiens, UniProt Q16620); assay: BaF3 BCR-NTRK2 cell proliferation assay (ATPlite); format: cell-based; conditions: read-out: Inhibition of Cell Proliferation IC50, BCR/BaF3 TrkB
T2 construct: fused on or other part: P11274 (Breakpoint cluster region protein)
T2 sequence (Q16620 538-807): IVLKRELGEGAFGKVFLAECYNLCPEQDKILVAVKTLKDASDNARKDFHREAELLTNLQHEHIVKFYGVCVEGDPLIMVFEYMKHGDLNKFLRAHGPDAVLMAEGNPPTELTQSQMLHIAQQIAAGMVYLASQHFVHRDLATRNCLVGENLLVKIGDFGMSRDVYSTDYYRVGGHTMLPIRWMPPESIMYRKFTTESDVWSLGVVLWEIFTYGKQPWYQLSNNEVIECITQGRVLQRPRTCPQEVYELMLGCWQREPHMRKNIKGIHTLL
Procedure, shortened: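 ATP-based luminescence (ATPlite), read after 10 min at room temperature, served as a proxy for cell number, and IC50 was fitted against compound concentration. Before that, cells were treated for 3 days with an 8-point 1:3 dilution series starting at 10 μM. BaF3 cells were plated at 10,000/well without IL-3, and MV-4-11 cells at 25,000/well.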

Row | Structure (SMILES) | IC50 (CYP1A2) | IC50 (CYP2C9) | IC50 (BCR-NTRK2 BaF3 cells)
1 | Clc1cnc2[nH]cc(Cc3cnc(NC4CCCCCC4)nc3)c2c1 [Compound P-3006, [5-(5-Chloro-1H-pyrrolo[2,3-b]pyridin-3-ylmethyl)-pyrimidin-2-yl]-cycloheptyl-amine] | > 10 µM | > 10 µM | > 10 µM
2 | Cc1cnc2[nH]cc(Cc3cnc(Nc4ccc(C(F)(F)F)nc4)nc3)c2c1 [Compound P-3018, [5-(5-Methyl-1H-pyrrolo[2,3-b]pyridin-3-ylmethyl)-pyrimidin-2-yl]-(6-trifluoromethyl-pyridin-3-yl)-amine] | > 10 µM | > 10 µM | < 0.1 µM
3 | CCOc1ccc(Nc2ccc(Cc3c[nH]c4ncc(C)cc34)c(F)n2)cn1 [Compound P-3039, (6-ethoxy-pyridin-3-yl)-[6-fluoro-5-(5-methyl-1H-pyrrolo[2,3-b]pyridin-3-ylmethyl)-pyridin-2-yl]-amine] | > 10 µM | > 10 µM | < 1 µM
4 | COc1ccc(Nc2ccc(C(=O)c3c[nH]c4ncc(C)cc34)c(F)n2)cn1 [Compound P-3040, [2-Fluoro-6-(6-methoxy-pyridin-3-ylamino)-pyridin-3-yl]-(5-methyl-1H-pyrrolo[2,3-b]pyridin-3-yl)-methanone] | > 10 µM | > 10 µM | < 0.01 µM
5 | Cc1cnc2[nH]cc(C(=O)c3ccc(Nc4ccc(C)nc4)nc3F)c2c1 [Compound P-3043, [2-Fluoro-6-(6-methyl-pyridin-3-ylamino)-pyridin-3-yl]-(5-methyl-1H-pyrrolo[2,3-b]pyridin-3-yl)-methanone] | > 10 µM | > 10 µM | < 0.1 µM
6 | Cc1ccc(Nc2ccc(C(=O)c3c[nH]c4ncc(Cl)cc34)c(F)n2)cn1 [Compound P-3044, (5-Chloro-1H-pyrrolo[2,3-b]pyridin-3-yl)-[2-fluoro-6-(6-methyl-pyridin-3-ylamino)-pyridin-3-yl]-methanone] | > 10 µM | > 10 µM | < 0.1 µM
7 | CCc1ccc(Nc2ccc(Cc3c[nH]c4ncc(C)cc34)c(F)n2)cn1 [Compound P-3048, (6-Ethyl-pyridin-3-yl)-[6-fluoro-5-(5-methyl-1H-pyrrolo[2,3-b]pyridin-3-ylmethyl)-pyridin-2-yl]-amine] | > 10 µM | > 10 µM | 
8 | Cc1cnc2[nH]cc(Cc3ccc(Nc4ccc(C5CC5)nc4)nc3F)c2c1 [Compound P-3050, (6-Cyclopropyl-pyridin-3-yl)-[6-fluoro-5-(5-methyl-1H-pyrrolo[2,3-b]pyridin-3-ylmethyl)-pyridin-2-yl]-amine] | > 10 µM | > 10 µM | 
9 | Fc1nc(Nc2ccc(C3CC3)nc2)ccc1Cc1c[nH]c2ncccc12 [Compound P-3053, (6-Cyclopropyl-pyridin-3-yl)-[6-fluoro-5-(1H-pyrrolo[2,3-b]pyridin-3-ylmethyl)-pyridin-2-yl]-amine] | > 10 µM | > 10 µM | 
10 | COc1ccc(Nc2ccc(Cc3c[nH]c4ncnc(OC)c34)c(F)n2)cn1 [Compound P-4001, [6-Fluoro-5-(4-methoxy-7H-pyrrolo[2,3-d]pyrimidin-5-ylmethyl)-pyridin-2-yl]-(6-methoxy-pyridin-3-yl)-amine] | > 10 µM | > 10 µM | < 0.1 µM
11 | COc1ccc(Nc2ccc(Cc3c[nH]c4ncnc(C)c34)c(F)n2)cn1 [Compound P-4002, [6-Fluoro-5-(4-methyl-7H-pyrrolo[2,3-d]pyrimidin-5-ylmethyl)-pyridin-2-yl]-(6-methoxy-pyridin-3-yl)-amine] | > 10 µM | > 10 µM | < 1 µM
12 | COc1ncnc2[nH]cc(Cc3ccc(Nc4ccc(Cl)nc4)nc3F)c12 [Compound P-4003, (6-Chloro-pyridin-3-yl)-[6-fluoro-5-(4-methoxy-7H-pyrrolo[2,3-d]pyrimidin-5-ylmethyl)-pyridin-2-yl]-amine] | > 10 µM | > 10 µM | < 1 µM
13 | CCOc1ccc(Nc2ccc(Cc3c[nH]c4ncnc(OC)c34)c(F)n2)cn1 [Compound P-4005, (6-Ethoxy-pyridin-3-yl)-[6-fluoro-5-(4-methoxy-7H-pyrrolo[2,3-d]pyrimidin-5-ylmethyl)-pyridin-2-yl]-amine] | > 10 µM | > 10 µM | < 0.01 µM
14 | CCOc1ccc(Nc2ccc(Cc3c[nH]c4ncnc(C)c34)c(F)n2)cn1 [Compound P-4006, (6-Ethoxy-pyridin-3-yl)-[6-fluoro-5-(4-methyl-7H-pyrrolo[2,3-d]pyrimidin-5-ylmethyl)-pyridin-2-yl]-amine] | > 10 µM | > 10 µM | < 0.01 µM
15 | CCOc1ccc(Nc2ccc(C(=O)c3c[nH]c4ncnc(C)c34)c(F)n2)cn1 [Compound P-4032, [6-(6-Ethoxy-pyridin-3-ylamino)-2-fluoro-pyridin-3-yl]-(4-methyl-7H-pyrrolo[2,3-d]pyrimidin-5-yl)-methanone] |  |  | < 0.1 µM
16 | CCn1cc(Nc2ccc(C(=O)c3c[nH]c4ncnc(C5CC5)c34)c(F)n2)cn1 [Compound P-4037, (4-Cyclopropyl-7H-pyrrolo[2,3-d]pyrimidin-5-yl)-[6-(1-ethyl-1H-pyrazol-4-ylamino)-2-fluoro-pyridin-3-yl]-methanone] | > 10 µM | 5 to 10 µM | 
17 | Cc1cncc(Nc2ccc(C(=O)c3c[nH]c4ncnc(C5CC5)c34)c(F)n2)c1 [Compound P-4039, (4-Cyclopropyl-7H-pyrrolo[2,3-d]pyrimidin-5-yl)-[2-fluoro-6-(5-methyl-pyridin-3-ylamino)-pyridin-3-yl]-methanone] |  |  | < 0.1 µM

The remaining lines, values ahead:

Row | IC50 (CYP1A2) | IC50 (CYP2C9) | IC50 (BCR-NTRK2 BaF3 cells) | Structure (SMILES)
18 | > 10 µM | > 10 µM | > 10 µM | Clc1cnc2[nH]cc(Cc3cnc(NC4CCCCC4)nc3)c2c1 [Compound P-3001, [5-(5-chloro-1H-pyrrolo[2,3-b]pyridin-3-ylmethyl)-pyrimidin-2-yl]-cyclohexyl-amine]
19 | > 10 µM | > 10 µM | < 10 µM | FC1(F)CCC(Nc2ncc(Cc3c[nH]c4ncc(Cl)cc34)cn2)CC1 [Compound P-3004]
20 | > 10 µM | > 10 µM | < 0.1 µM | COc1ccc(Nc2ccc(Cc3c[nH]c4ncc(C)cc34)c(F)n2)cn1 [Compound P-3019, [6-fluoro-5-(5-methyl-1H-pyrrolo[2,3-b]pyridin-3-ylmethyl)-pyridin-2-yl]-(6-methoxy-pyridin-3-yl)-amine]
21 | > 10 µM | > 10 µM | < 1 µM | Cc1cnc2[nH]cc(Cc3ccc(Nc4ccc(C)nc4)nc3F)c2c1 [Compound P-3041, [6-Fluoro-5-(5-methyl-1H-pyrrolo[2,3-b]pyridin-3-ylmethyl)-pyridin-2-yl]-(6-methyl-pyridin-3-yl)-amine]
22 | > 10 µM | > 10 µM |  | CCc1ccc(Nc2ccc(C(=O)c3c[nH]c4ncc(C)cc34)c(F)n2)cn1 [Compound P-3049, [6-(6-Ethyl-pyridin-3-ylamino)-2-fluoro-pyridin-3-yl]-(5-methyl-1H-pyrrolo[2,3-b]pyridin-3-yl)-methanone]
23 | > 10 µM | > 10 µM |  | Cc1cnc2[nH]cc(C(=O)c3ccc(Nc4ccc(C5CC5)nc4)nc3F)c2c1 [Compound P-3051, [6-(6-Cyclopropyl-pyridin-3-ylamino)-2-fluoro-pyridin-3-yl]-(5-methyl-1H-pyrrolo[2,3-b]pyridin-3-yl)-methanone]
24 | > 10 µM | 5 to 10 µM |  | O=C(c1ccc(Nc2ccc(C3CC3)nc2)nc1F)c1c[nH]c2ncccc12 [Compound P-3052, [6-(6-Cyclopropyl-pyridin-3-ylamino)-2-fluoro-pyridin-3-yl]-(1H-pyrrolo[2,3-b]pyridin-3-yl)-methanone]
25 | > 10 µM | > 10 µM | < 0.01 µM | COc1ncnc2[nH]cc(Cc3ccc(Nc4ccc(C5CC5)nc4)nc3F)c12 [Compound P-4004, (6-Cyclopropyl-pyridin-3-yl)-[6-fluoro-5-(4-methoxy-7H-pyrrolo[2,3-d]pyrimidin-5-ylmethyl)-pyridin-2-yl]-amine]
26 |  |  | < 0.01 µM | CCOc1ccc(Nc2ccc(C(=O)c3c[nH]c4ncnc(C5CC5)c34)c(F)n2)cn1 [Compound P-4027, (4-Cyclopropyl-7H-pyrrolo[2,3-d]pyrimidin-5-yl)-[6-(6-ethoxy-pyridin-3-ylamino)-2-fluoro-pyridin-3-yl]-methanone]
27 |  |  | < 1 µM | Cc1cncc(Nc2ccc(Cc3c[nH]c4ncnc(C5CC5)c34)c(F)n2)c1 [Compound P-4038, [5-(4-Cyclopropyl-7H-pyrrolo[2,3-d]pyrimidin-5-ylmethyl)-6-fluoro-pyridin-2-yl]-(5-methyl-pyridin-3-yl)-amine]
